Experimental findings from paper PMC11406361, “Several orphan solute carriers functionally identified as organic cation transporters: Substrates specificity compared with known cation transporters” (The Journal of Biological Chemistry, 2024) are described below.

Read-outs that look alike come from different tables or passages of the source.

This assay concerns the target SLC35G3 (Homo sapiens, UniProt Q8N808). The assay is described as follows: Uptake ratio screen, SLC35G3-overexpressing HEK293 over empty vector cells. The class given is cell-based. The arrangement: by amplifying the entire gene-of-interest within the HEK293 genome via a long-range PCR.
The mark [1] stands for this setting: 2.5 μM substrate, 2 min, HEK293.

Chain of SLC35G3 (Q8N808 whole entry): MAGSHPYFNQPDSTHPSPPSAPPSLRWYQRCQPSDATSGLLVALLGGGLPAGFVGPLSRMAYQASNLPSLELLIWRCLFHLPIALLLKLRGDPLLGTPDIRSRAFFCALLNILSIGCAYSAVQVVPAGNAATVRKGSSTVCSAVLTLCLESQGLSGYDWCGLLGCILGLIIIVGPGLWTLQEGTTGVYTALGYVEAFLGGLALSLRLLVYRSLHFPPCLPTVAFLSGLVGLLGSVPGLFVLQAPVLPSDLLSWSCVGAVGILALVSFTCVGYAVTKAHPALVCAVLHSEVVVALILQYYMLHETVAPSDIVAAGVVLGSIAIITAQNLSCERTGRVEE

As to `NC(=O)C1(N2CCCCC2)CCN(CCCC(=O)c2ccc(F)cc2)CC1` [Pipamperone], the “Uptake data for SLC35G3, mean value (fold-increase over empty vector control)” value under setting [1] stood at 1.33.
The same measure, in the same setting: then `C[C@@H](O)[C@H]1C(=O)N2C(C(=O)O)=C(S[C@@H]3CN[C@H](C(=O)N(C)C)C3)[C@H](C)[C@H]12` [Meropenem], with 1.27.
Still for that read-out and setting: next, `COc1cc2nc(N3CCN(C(=O)C4CCCO4)CC3)nc(N)c2cc1OC` (stereo not shown) [Terazosin]: 1.49; `COc1ccc(OC)c(C(O)CNC(=O)CN)c1` (stereo not shown) [Midodrine]: 1.33; `CCN1CCCC1CNC(=O)c1cc(S(=O)(=O)CC)c(N)cc1OC` (stereo not shown) [Amisulpride]: 1.53.
For `C[C@H](N)[C@@H](O)c1ccccc1` [Cathine ((+)-Norpseudoephedrine), (+)-Norpseudoephedrine], the “Uptake data for SLC35G3, mean value (fold-increase over empty vector control)” value came to 1.21.
Consider `CCOC(=O)[C@]1(c2ccccc2)CCC=C[C@H]1NC` [Nortilidine], for which the “Uptake data for SLC35G3, mean value (fold-increase over empty vector control)” value under setting [1] worked out at 2.87.
Still for that read-out and setting: next, `CNCC[C@@H](Oc1ccccc1C)c1ccccc1` [Atomoxetine]: 1.26.
Same read-out and setting: next, `CCOc1ccccc1OCCN[C@H](C)Cc1ccc(OC)c(S(N)(=O)=O)c1` [Tamsulosin]: 1.39.
Same read-out and setting: then `N[C@@H]1CON=C1O` [Cycloserine (D-), Cycloserine], with 0.93; and `C=C1CC[C@@]2(O)[C@H]3Cc4ccc(O)c5c4[C@@]2(CCN3CC2CC2)[C@H]1O5` [Nalmefen], with 1.99; and `CCCCN1CCCCC1C(=O)Nc1c(C)cccc1C` (stereo not shown) [Bupivacaine], with 2.44.
With `CC12CC3CC(C)(C1)CC(N)(C3)C2` [Memantine], the “Uptake data for SLC35G3, mean value (fold-increase over empty vector control)” value under setting [1] was found to be 1.19.
As to `Fc1ccc([C@@H]2CCNC[C@H]2COc2ccc3c(c2)OCO3)cc1` [Paroxetin], the “Uptake data for SLC35G3, mean value (fold-increase over empty vector control)” value under setting [1] was found to be 1.30.
On the same count and under the same terms, next, `COCCn1c2c([n+](Cc3cnccn3)c1C)C(=O)c1ccccc1C2=O` [YM155]: 1.11; `C=CCN1C[C@H](C(=O)N(CCCN(C)C)C(=O)NCC)C[C@@H]2c3cccc4[nH]cc(c34)C[C@H]21` [Cabergoline]: 1.49.
The same measure, in the same setting: next, `CN(C)CCC=C1c2ccccc2CCc2ccccc21` [Amitriptyline]: 1.47; `CN1CCN(C2=Nc3cc(Cl)ccc3Nc3ccccc32)CC1` [Clozapine]: 1.44.
The same measure, in the same setting: next, `COc1ccc(C(CN(C)C)C2(O)CCCCC2)cc1` (stereo not shown) [Venlafaxine]: 1.60; `COc1ccc(CN(CCN(C)C)c2ccccn2)cc1` [Pyrilamine]: 1.74.
Consider `COc1ccccc1N1CCN(CCCNc2cc(=O)n(C)c(=O)n2C)CC1` [Urapidil], for which, under setting [1], the “Uptake data for SLC35G3, mean value (fold-increase over empty vector control)” value was determined as 1.37.
With `CC(NC(C)(C)C)C(=O)c1cccc(Cl)c1` (stereo not shown) [Bupropion], the “Uptake data for SLC35G3, mean value (fold-increase over empty vector control)” value under setting [1] worked out at 1.29.
On the same count and under the same terms, then `CNC[C@H](O)c1cccc(O)c1` [Phenylephrine], with 1.10; and `COc1ccc2c3c1O[C@H]1C[C@@H](O)C=C[C@@]31CCN(C)C2` [Galantamine], with 1.57; and `C[N+]1(CC2CC2)CC[C@]23c4c5ccc(O)c4O[C@H]2C(=O)CC[C@@]3(O)[C@H]1C5` (stereo partly shown) [Methylnaltrexon], with 1.36.
In the case of `CNCC1CCCCC1(O)c1cccc(OC)c1` (stereo not shown) [N-Desmethyltramadol], under setting [1], the “Uptake data for SLC35G3, mean value (fold-increase over empty vector control)” value came out at 1.38.
Turning to `COc1cc(CCN)cc(OC)c1OC` [Mescaline], the “Uptake data for SLC35G3, mean value (fold-increase over empty vector control)” value is reported as 1.34.
On to `CN(C)CCOC(C)(c1ccccc1)c1ccccn1` (stereo not shown) [Doxylamine], for which the “Uptake data for SLC35G3, mean value (fold-increase over empty vector control)” value under setting [1] worked out at 1.10.
Same read-out and setting: next, `CNCCCN1c2ccccc2CCc2ccccc21` [Desipramine]: 1.31.
Same read-out and setting: next, `O=C(O[C@H]1CN2CCC1CC2)N1CCc2ccccc2[C@@H]1c1ccccc1` [Solifenacin]: 1.26; `CC(C)NCC(O)COc1cccc2ccccc12` (stereo not shown) [Propranolol]: 1.27.
Still for that read-out and setting: then `CC(C)(C)c1ccc(C(O)CCCN2CCC(C(O)(c3ccccc3)c3ccccc3)CC2)cc1` (stereo not shown) [Terfenadine], with 1.28.
For `O=C(CCCN1CCC(O)(c2ccc(Cl)cc2)CC1)c1ccc(F)cc1` [Haloperidol], under setting [1], the “Uptake data for SLC35G3, mean value (fold-increase over empty vector control)” value was found to be 1.47.
On the same count and under the same terms, next, `CC[C@@H](CO)NCCN[C@@H](CC)CO` [Ethambutol]: 0.99; `CCN(C)C(=O)Oc1cccc([C@H](C)N(C)C)c1` [Rivastigmine]: 1.65.
On to `CNC1(c2ccccc2Cl)CCCCC1=O` (stereo not shown) [Ketamine], for which the “Uptake data for SLC35G3, mean value (fold-increase over empty vector control)” value worked out at 1.28.
`C#CCN[C@@H]1CCc2ccccc21` [Rasagiline]: the “Uptake data for SLC35G3, mean value (fold-increase over empty vector control)” value under setting [1] is on record as 1.90.
Still for that read-out and setting: then `CN(C)CCc1c[nH]c2ccc(C[C@H]3COC(=O)N3)cc12` [Zolmitriptan], with 1.27; and `N[C@@H]1CON=C1O` [Cycloserine (L-), Cycloserine], with 1.11; and `CN[C@@H](C)[C@H](O)c1ccccc1` [Ephedrine], with 1.59.
On the same count and under the same terms, next, `OCCOCCN1CCN(C2=Nc3ccccc3Sc3ccccc32)CC1` [Quetiapine]: 1.37; `CCN(CC)C(=O)C1(c2ccccc2)CC1CN` (stereo not shown) [Milnacipran]: 1.31.
Still for that read-out and setting: then `C[C@H]1COc2c(N3CCN(C)CC3)c(F)cc3c(=O)c(C(=O)O)cn1c23` [Levofloxacin], with 1.05; and `O=C1c2cccc3c2[C@H](CCC3)CN1[C@@H]1CN2CCC1CC2` [Palonosetron], with 1.36; and `OC(CCN1CCCCC1)(c1ccccc1)C1CC2C=CC1C2` (stereo not shown) [Biperiden], with 1.50.
Turning to `COc1ccc2c3c1O[C@H]1C(=O)CC[C@H]4[C@@H](C2)N(C)CC[C@]314` [Hydrocodone], the “Uptake data for SLC35G3, mean value (fold-increase over empty vector control)” value under setting [1] came out at 1.71.
Still for that read-out and setting: then `Cc1cccc(C)c1NC(=O)C1CCCCN1C` (stereo not shown) [Mepivacaine], with 2.30; and `N[C@@H]1C[C@H]1c1ccccc1` (racemic) [Tranylcypromine], with 2.56.
Still for that read-out and setting: then `COc1ccc2c(c1)N(C[C@H](C)CN(C)C)c1ccccc1S2` [Levomepromazine], with 1.30; and `O=C1CC2(CCCC2)CC(=O)N1CCCCN1CCN(c2ncccn2)CC1` [Buspirone], with 1.72.
On to `C[N+](C)(C)CC(=O)O` [Betaine], for which the “Uptake data for SLC35G3, mean value (fold-increase over empty vector control)” value under setting [1] is reported as 0.84.
Same read-out and setting: then `CCCN(CCC)CCc1cccc2c1CC(=O)N2` [Ropinirole], with 1.37.
On the same count and under the same terms, then `CC(Cc1ccc(O)cc1)NCC(O)c1cc(O)cc(O)c1` (stereo not shown) [Fenoterol], with 1.19.
Still for that read-out and setting: then `NCCc1ccc(O)cc1` [Tyramine], with 1.61; and `CC(CN(C)C)CN1c2ccccc2CCc2ccccc21` (stereo not shown) [Trimipramine], with 1.47; and `COc1cc(Cc2cnc(N)nc2N)cc(OC)c1OC` [Trimethoprim], with 1.24.
As for `O=C1CCc2ccc(OCCCCN3CCN(c4cccc(Cl)c4Cl)CC3)cc2N1` [Aripiprazole], the “Uptake data for SLC35G3, mean value (fold-increase over empty vector control)” value under setting [1] is reported as 1.22.
Same read-out and setting: then `COc1c(N2C[C@@H]3CCCN[C@@H]3C2)c(F)cc2c(=O)c(C(=O)O)cn(C3CC3)c12` [Moxifloxacin], with 1.34; and `Cc1nc2n(c(=O)c1CCN1CCC(c3noc4cc(F)ccc34)CC1)CCCC2` [Risperidone], with 1.41.
On the same count and under the same terms, next, `CC(C)NCC(O)COc1ccc(COCCOC(C)C)cc1` (stereo not shown) [Bisoprolol]: 1.24; `CN(C)CCCN1c2ccccc2CCc2ccccc21` [Imipramine]: 1.40.
Regarding `NCC1(CC(=O)O)CCCCC1` [Gabapentin], the “Uptake data for SLC35G3, mean value (fold-increase over empty vector control)” value under setting [1] stood at 0.90.
Same read-out and setting: then `CCCCNc1ccc(C(=O)OCCN(C)C)cc1` [Tetracaine], with 1.54; and `COCCc1ccc(OCC(O)CNC(C)C)cc1` (stereo not shown) [Metoprolol], with 1.52.
Still for that read-out and setting: then `C=CCN1CC[C@]23c4c5ccc(O)c4O[C@H]2C(=O)CC[C@@]3(O)[C@H]1C5` [Naloxone], with 2.01.
Same read-out and setting: next, `CCN(CC)CCNC(=O)c1cc(Cl)c(N)cc1OC` [Metoclopramide]: 1.44; `CC(CCc1ccc(O)cc1)NCCc1ccc(O)c(O)c1` (stereo not shown) [Dobutamine]: 1.58.
